From patent publication US10323023B2, “Rho-associated protein kinase inhibitor, pharmaceutical composition comprising the same, as well as preparation method and use thereof” (Beijing Tide Pharmaceutical Co., Ltd., priority 2017, dated 2019)

Each compound was assayed against ROCK2 (Homo sapiens (Human), UniProt O75116) (assay: ROCK2 kinase IC50 by HTRF KinEASE-STK S2 kit). Conditions: 2 hours at room temperature, ROCK2 (01-119) from Carna Biosciences.
Type: biochemical
Procedure: The kinase IC50 was determined by a commercialized CISBIO kinase detection kit, HTRF KinEASE-STK S2 kit (62ST2PEC). ROCK2 (01-119) employed in the reaction was purchased from Carna Biosciences.
Before the assay, the following working solutions as needed were formulated with corresponding reagents according to the instruction of the kinase detection kit: 1×kinase buffer, 5×STK-S2 substrate working solution (1.5 μM) and 5×ATP working solution (1.5 μM), 5×ROCK2 kinase working solution, 4×Streptavidin-XL665 working solution, and 4×STK-Ab-Cryptate 2 detection solution. Then the assay was performed according to the following procedure.
A solution of a compound at a concentration of 10000 nM was prepared with the 1×kinase buffer containing 2.5% DMSO. Gradient dilution of the solution of the compound was performed with the kinase buffer containing DMSO, so as to obtain solutions of a test compound at 9 different concentrations. In addition to wells of test compounds, a positive well (containing all the reagents except the compound) and a negative well (containing all the reagents except the test compound and kinase) were set. Except for the control wells (positive and negative wells), a solution of a test compound (4 μL) was added to each of the reaction wells, and a solution of 2.5% DMSO was added to the control wells. Then the substrate (2 μM, i.e., 2 μL 5×STK-S2 substrate working solution) was added to each of the reaction wells. The 5×ROCK2 kinase working solution (2 μL, containing 1.4 ng ROCK2 kinase) was added to each of the reaction wells except for the negative well, the volume of which was made up with the 1×kinase buffer (2 μL). The 5×ATP working solution (2 μL) was added to each of the reaction wells, and the mixtures were incubated at room temperature for 2 hours. After the kinase reaction was complete, the 4×Streptavidin-XL665 working solution was added to each of the reaction wells, the solutions were mixed, followed by immediate addition of the 4×STK-Ab-Cryptate 2 detection solution (5 μL), and the mixtures were incubated at room temperature for 1 hour. The fluorescence signal was read on ENVISION (Perkinelmer) (excitation wavelength: 320 nm, and emission wavelength: 665 nm and 615 nm). The inhibitory rate in each well was calculated based on the fluorescence intensity value: ER (Emission Ratio)=(fluorescence intensity at 665 nm/fluorescence intensity at 615 nm); inhibitory rate=(ERpositive−ERtest compound)/(ERpositive−ERnegative)*100%. Curves were plotted and fitted to obtain the median inhibitory concentration (IC50) of each test compound with the PRISM 5.0 software.

Sequence of ROCK2 (O75116 1-553 limits assumed): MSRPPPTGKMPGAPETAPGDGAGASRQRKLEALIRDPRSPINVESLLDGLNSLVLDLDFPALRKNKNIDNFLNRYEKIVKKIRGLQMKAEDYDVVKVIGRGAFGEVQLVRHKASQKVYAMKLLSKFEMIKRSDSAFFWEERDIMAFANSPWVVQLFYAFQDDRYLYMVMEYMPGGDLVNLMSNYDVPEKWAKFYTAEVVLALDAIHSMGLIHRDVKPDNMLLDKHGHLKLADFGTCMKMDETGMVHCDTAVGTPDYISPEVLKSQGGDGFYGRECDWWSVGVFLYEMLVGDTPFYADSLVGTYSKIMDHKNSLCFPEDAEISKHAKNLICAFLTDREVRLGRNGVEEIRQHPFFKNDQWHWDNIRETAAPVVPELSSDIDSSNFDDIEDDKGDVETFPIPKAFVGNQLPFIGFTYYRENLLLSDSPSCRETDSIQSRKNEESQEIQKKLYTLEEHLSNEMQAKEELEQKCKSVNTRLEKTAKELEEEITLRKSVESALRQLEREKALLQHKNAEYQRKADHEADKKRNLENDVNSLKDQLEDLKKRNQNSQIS

IC50 | Compound
0.236 µM | O=C(Nc1ccnnc1)c1cc2ccc(-c3nccc(Nc4ccc5[nH]ncc5c4)n3)cc2s1 [TDI01116, 6-(4-((1H-indazol-5-yl)amino)pyrimidin-2-yl)-N-(pyridazin-4-yl)benzo[b]thiophene-2-carboxamide]
0.088 µM | O=C(Nc1ccnnc1)c1cc2ccc(-c3nccc(Nc4ccc5[nH]ncc5c4)n3)cc2[nH]1 [TDI01152, 6-(4-((1H-indazol-5-yl)amino)pyrimidin-2-yl)-N-(pyridazin-4-yl)-1H-indole-2-carboxamide]
0.438 µM | O=C(Nc1ccnnc1)c1cc2ccc(-c3nc(Nc4ccc5[nH]ncc5c4)cc4nccn34)cc2[nH]1 [TDI01164, 6-(7-((1H-indazol-5-yl)amino)imidazo[1,2-c]pyrimidin-5-yl)-N-(pyridazin-4-yl)-1H-indole-2-carboxamide]
0.223 µM | O=C(Nc1ccnnc1)c1cc2ccc(-c3ncnc(Nc4ccc5[nH]ncc5c4)n3)cc2[nH]1 [TDI01167, 6-(4-((1H-indazol-5-yl)amino)-1,3,5-triazin-2-yl)-N-(pyridazin-4-yl)-1H-indole-2-carboxamide]
0.197 µM | O=C(Nc1ccnnc1)c1cc2ccc(-c3nc(Nc4ccc5[nH]ncc5c4)c4sccc4n3)cc2[nH]1 [TDI01175, 6-(4-((1H-indazol-5-yl)amino)thieno[3,2-d]pyrimidin-2-yl)-N-(pyridazin-4-yl)-1H-indole-2-carboxamide]
0.168 µM | O=C(NCc1ccnnc1)c1cc2ccc(-c3nccc(Nc4ccc5[nH]ncc5c4)n3)cc2[nH]1 [TDI01178, 6-(4-((1H-indazol-5-yl)amino)pyrimidin-2-yl)-N-(pyridazin-4-ylmethyl)-1H-indole-2-carboxamide]
0.037 µM | O=C(Nc1ccnnc1Cl)c1cc2ccc(-c3nccc(Nc4ccc5[nH]ncc5c4)n3)cc2[nH]1 [TDI01180, 6-(4-((1H-indazol-5-yl)amino)pyrimidin-2-yl)-N-(3-chloro-pyridazin-4-yl)-1H-indole-2-carboxamide]
0.092 µM | O=C(Nc1cnncc1Cl)c1cc2ccc(-c3nccc(Nc4ccc5[nH]ncc5c4)n3)cc2[nH]1 [TDI01181, 6-(4-((1H-indazol-5-yl)amino)pyrimidin-2-yl)-N-(5-chloro-pyridazin-4-yl)-1H-indole-2-carboxamide]
0.123 µM | O=C(Nc1ccnnc1)c1cc2cc(-c3nccc(Nc4ccc5[nH]ncc5c4)n3)ccc2[nH]1 [TDI01188, 5-(4-((1H-indazol-5-yl)amino)pyrimidin-2-yl)-N-(pyridazin-4-yl)-1H-indole-2-carboxamide]
0.225 µM | O=C(Nc1ccnnc1)c1c[nH]c2ccc(-c3nccc(Nc4ccc5[nH]ncc5c4)n3)cc12 [TDI01191, 5-(4-((1H-indazol-5-yl)amino)pyrimidin-2-yl)-N-(pyridazin-4-yl)-1H-indole-3-carboxamide]
0.048 µM | Cn1c(C(=O)Nc2ccnnc2)cc2ccc(-c3nccc(Nc4ccc5[nH]ncc5c4)n3)cc21 [TDI01201, 6-(4-((1H-indazol-5-yl)amino)pyrimidin-2-yl)-1-methyl-N-(pyridazin-4-yl)-1H-indole-2-carboxamide]
0.255 µM | O=C(Nc1ccnnc1)c1cc2ccc(-c3ncc(F)c(Nc4ccc5[nH]ncc5c4)n3)cc2[nH]1 [TDI01213, 6-(4-((1H-indazol-5-yl)amino)-5-fluoro-pyrimidin-2-yl)-N-(pyridazin-4-yl)-1H-indole-2-carboxamide]
0.295 µM | Cc1nc(-c2ccc3cc(C(=O)Nc4ccnnc4)[nH]c3c2)nc(Nc2ccc3[nH]ncc3c2)c1C [TDI01232, 6-(4-((1H-indazol-5-yl)amino)-5,6-dimethylpyrimidin-2-yl)-N-(pyridazin-4-yl)-1H-indole-2-carboxamide]
0.135 µM | O=C(Nc1ccnnc1)c1ccc2ccc(-c3nccc(Nc4ccc5[nH]ncc5c4)n3)cc2n1 [TDI01236, 7-(4-((1H-indazol-5-yl)amino)pyrimidin-2-yl)-N-(pyridazin-4-yl)quinoline-2-carboxamide]
0.171 µM | O=C(Nc1ccnnc1)N1Cc2ccc(-c3nccc(Nc4ccc5[nH]ncc5c4)n3)cc2C1 [TDI01237, 5-(4-((1H-indazol-5-yl)amino)pyrimidin-2-yl)-N-(pyridazin-4-yl)isoindoline-2-carboxamide]
0.208 µM | Cc1cnc(-c2ccc3cc(C(=O)Nc4ccnnc4)[nH]c3c2)nc1Nc1ccc2[nH]ncc2c1 [TDI01250, 6-(4-((1H-indazol-5-yl)amino)-5-methyl-pyrimidin-2-yl)-N-(pyridazin-4-yl)-1H-indole-2-carboxamide]
0.101 µM | Cc1cc(Nc2ccc3[nH]ncc3c2)nc(-c2ccc3cc(C(=O)Nc4ccnnc4)[nH]c3c2)n1 [TDI01251, 6-(4-((1H-indazol-5-yl)amino)-6-methyl-pyrimidin-2-yl)-N-(pyridazin-4-yl)-1H-indole-2-carboxamide]
0.113 µM | Cc1c(Nc2ccnc(-c3ccc4cc(C(=O)Nc5ccnnc5)[nH]c4c3)n2)ccc2[nH]ncc12 [TDI01276, 6-(4-((4-methyl-1H-indazol-5-yl)amino)pyrimidin-2-yl)-N-(pyridazin-4-yl)-1H-indole-2-carboxamide]
0.356 µM | CN(C(=O)c1cc2ccc(-c3nccc(Nc4ccc5[nH]ncc5c4)n3)cc2[nH]1)c1ccnnc1 [TDI01347, 6-(4-((1H-indazol-5-yl)amino)pyrimidin-2-yl)-N-methyl-N-(pyridazin-4-yl)-1H-indole-2-carboxamide]
